According to ChEMBL document CHEMBL1201862, “PubChem BioAssay data set” (2004):
Active and inactive are the calls of the source.

What was measured:
[1] = biological target: T1, RNA-binding protein pos-1 (Caenorhabditis elegans, UniProt G5EF15); test: disruptors of C. elegans POS-1 RNA interaction – biochemical, fluorescence polarization, dose response (AID 1964);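 further: purified POS-1 fused to maltose binding protein made in E. coli; potency of compounds blocking POS-1 binding to fluorescent RNA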
T1 sequence (G5EF15 whole entry): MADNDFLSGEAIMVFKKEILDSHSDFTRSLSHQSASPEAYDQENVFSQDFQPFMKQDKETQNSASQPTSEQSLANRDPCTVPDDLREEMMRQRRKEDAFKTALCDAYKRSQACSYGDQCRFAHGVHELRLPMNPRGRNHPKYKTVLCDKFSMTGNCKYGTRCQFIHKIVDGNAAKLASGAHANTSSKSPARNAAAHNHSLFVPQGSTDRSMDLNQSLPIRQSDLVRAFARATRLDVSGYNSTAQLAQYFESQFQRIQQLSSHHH

[2] = biological target: T2, Zinc finger protein mex-5 (Caenorhabditis elegans, UniProt Q9XUB2); test: potency of MEX-5 RNA-binding blockers – biochemical, C. elegans, fluorescence polarization, dose response (AID 1960)
T2 sequence (Q9XUB2 whole entry): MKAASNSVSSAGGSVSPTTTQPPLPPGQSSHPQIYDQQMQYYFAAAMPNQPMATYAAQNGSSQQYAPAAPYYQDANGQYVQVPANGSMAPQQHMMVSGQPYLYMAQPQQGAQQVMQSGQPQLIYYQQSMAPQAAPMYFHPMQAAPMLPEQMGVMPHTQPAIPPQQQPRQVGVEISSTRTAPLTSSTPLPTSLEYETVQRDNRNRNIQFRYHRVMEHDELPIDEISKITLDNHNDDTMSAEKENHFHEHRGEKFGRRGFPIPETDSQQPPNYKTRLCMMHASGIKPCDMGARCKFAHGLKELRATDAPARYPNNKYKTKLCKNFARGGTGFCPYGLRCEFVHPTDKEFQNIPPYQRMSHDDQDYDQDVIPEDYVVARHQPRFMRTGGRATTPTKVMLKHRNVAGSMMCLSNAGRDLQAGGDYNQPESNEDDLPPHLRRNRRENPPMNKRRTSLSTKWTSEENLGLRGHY

[3] = biological target: Genome polyprotein (dengue virus type 2, UniProt P29990); test: flavivirus cap methylation enzyme inhibition – biochemical, confirmation dose response, primary screen (AID 588689); assay type: functional
[4] = biological target: Ras and Rab interactor 1/Tyrosine-protein kinase ABL1 (Homo sapiens, UniProt P00519+Q13671); assay type: functional;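 further: biochemical TR-FRET dose-response test measuring inhibition of binding between Rin1 and Abl proteins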
[5] = biological target: Caspase-6 (Homo sapiens, UniProt P55212); test: inhibition of CASP6 peptide cleavage – biochemical, VEID-R110 fluorescence, cherry-pick, dose response (AID 720632)
[6] = biological target: T3, Heat shock factor protein 1 (Mus musculus, UniProt P38532); test: decrease of HSF1-responsive luciferase luminescence – cell-based, NIH3T3, dose retest, confirmation (AID 2382); assay type: functional;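 further: NIH3T3 fibroblasts with HSF1-driven luciferase reporter stressed by proteasome inhibitor MG132; luminescence from HSF1-driven luciferase expression after 8 hours of MG132 stress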
T3 sequence (P38532 whole entry): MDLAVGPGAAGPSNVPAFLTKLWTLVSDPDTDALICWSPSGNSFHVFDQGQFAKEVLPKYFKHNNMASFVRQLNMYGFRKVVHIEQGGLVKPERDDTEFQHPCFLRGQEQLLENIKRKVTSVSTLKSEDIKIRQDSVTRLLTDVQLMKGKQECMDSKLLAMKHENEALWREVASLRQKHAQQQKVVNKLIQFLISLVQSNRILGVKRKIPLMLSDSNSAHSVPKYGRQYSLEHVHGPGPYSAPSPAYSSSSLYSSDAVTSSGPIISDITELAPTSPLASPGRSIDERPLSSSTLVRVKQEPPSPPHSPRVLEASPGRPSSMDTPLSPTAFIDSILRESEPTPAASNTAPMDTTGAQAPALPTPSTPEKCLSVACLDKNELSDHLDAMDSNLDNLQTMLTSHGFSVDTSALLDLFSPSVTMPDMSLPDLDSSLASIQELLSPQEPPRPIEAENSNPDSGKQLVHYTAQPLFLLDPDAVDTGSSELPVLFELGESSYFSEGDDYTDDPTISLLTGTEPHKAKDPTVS

[7] = Trypanosoma cruzi growth suppression in host cells – NIH3T3 host cells, beta-gal luminescence, confirmation (AID 2044); assay type: functional, cell-based;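 further: intracellular parasites grown in NIH/3T3 mouse fibroblasts as host cells; luminescent beta-galactosidase reporter signal from transgenic T. cruzi replicating inside host cells; inhibitors lower the luminescence signal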
[8] = NIH3T3 cell viability loss – ATP luminescence, mouse fibroblasts, counter-screen, dose response (AID 2010); assay type: functional, cell-based;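 further: cells exposed to compound for about 90 hours before reading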
[9] = biological target: Mitogen-activated protein kinase 10 (Homo sapiens, UniProt P53779); test: Dose response biochemical screening assay for inhibitors of c-Jun N-Terminal Kinase 3 (JNK3). [Related pubchem assays: 746 ]
[10] = biological target: Ephrin type-A receptor 4 (Mus musculus, UniProt Q03137); test: EphA4 ligand-binding antagonists – biochemical, colorimetric, mouse EphA4, primary screen (AID 689); assay type: functional
[11] = biological target: T4, Cytochrome P450 1A2 (Homo sapiens, UniProt P05177);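 further: PubChem cytochrome P450 panel assay, CYP1A2 panel member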
T4 sequence (P05177 whole entry): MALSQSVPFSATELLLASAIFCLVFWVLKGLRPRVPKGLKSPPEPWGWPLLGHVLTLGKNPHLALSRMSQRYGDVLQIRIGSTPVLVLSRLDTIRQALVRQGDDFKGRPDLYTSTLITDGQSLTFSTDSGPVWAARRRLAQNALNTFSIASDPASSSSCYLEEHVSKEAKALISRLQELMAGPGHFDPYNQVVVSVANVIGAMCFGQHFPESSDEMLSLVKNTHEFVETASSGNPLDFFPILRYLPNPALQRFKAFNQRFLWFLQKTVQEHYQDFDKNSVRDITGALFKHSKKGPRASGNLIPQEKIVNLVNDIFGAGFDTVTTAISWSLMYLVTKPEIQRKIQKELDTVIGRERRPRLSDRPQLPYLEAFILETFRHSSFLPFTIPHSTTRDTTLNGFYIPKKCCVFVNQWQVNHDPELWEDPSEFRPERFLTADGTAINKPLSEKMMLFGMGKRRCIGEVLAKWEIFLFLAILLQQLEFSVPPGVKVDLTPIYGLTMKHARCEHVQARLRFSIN

[12] = biological target: Cytochrome P450 3A4 (Homo sapiens, UniProt P08684);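 further: CYP3A4 tested as one member of a cytochrome P450 panel screen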
[13] = biological target: Kallikrein-7 (Homo sapiens, UniProt P49862); test: Fluorescence Intensity-based biochemical primary high throughput dose response assay to identify activators of kallikrein-7 (K7) zymogen.
[14] = biological target: Large T antigen (Simian virus 40, UniProt P03070); assay type: functional, Betapolyomavirus macacae;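 further: Confirmatory-stage PubChem screen for compounds that inhibit SV40 T antigen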
[15] = M. tuberculosis growth inhibition, HTS (AID 449762); assay type: functional
[16] = biological target: RNA-editing ligase 1, mitochondrial (Trypanosoma brucei brucei, UniProt P86926); test: inhibition of trypanosome RNA editing ligase – biochemical, fluorescence, Trypanosoma brucei, dose response (AID 1117295); assay type: functional
[17] = biological target: G-protein coupled receptor 183 (Homo sapiens, UniProt P32249); test: SAR confirmation of small molecule antagonists of the EBI2 receptor via a luminescent beta-arrestin assa.; assay type: functional
[18] = Luminescence Cell-Based Dose Retest to Confirm Inhibitors of Cancer Stem Cells. [Related pubchem assays (depositor defined):AID2717, AID2721]; assay type: functional; conditions: Homo sapiens
[19] = biological target: Cytochrome P450 2C9 (Homo sapiens, UniProt P11712)
[20] = biological target: Bifunctional protein GlmU (Mycobacterium tuberculosis, UniProt P9WMN3); test: Inhibitors of Mycobacterial Glucosamine-1-phosphate acetyl transferase (GlmU). Secondary screen.; set-up: species or system Mycobacterium tuberculosis H37Rv
[21] = biological target: Induced myeloid leukemia cell differentiation protein Mcl-1 (Homo sapiens, UniProt Q07820); assay type: functional
[22] = biological target: Eukaryotic translation initiation factor 4E (Mus musculus, UniProt P63073); test: blockers of eIF4G binding by eIF4E – biochemical, TR-FRET, dose response (AID 855); assay type: functional;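 further: potency for disrupting eIF4E binding to eIF4GI seen as loss of FRET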
[23] = A549 cell cytotoxicity, dose response, cytotoxicity control, plate reader, cherry-pick, antagonist series (AID 743412); assay type: functional, cell-based
[24] = toxicity toward HepG2 liver cells – cell-based, plate reader, cherry-pick, antagonist series, cytotoxicity control, dose response (AID 743416); assay type: functional
[25] = viability loss in HEK293 cells – cell-based, plate reader, cherry-picked samples, cytotoxicity control, dose response (AID 743446); assay type: functional
[26] = Luminescence Cell-Based Dose Response to Identify Activators of 5'UTR Stem-Loop Driven Prion Protein mRNA Translation in H4-C Neuroglioblastoma Cells. [Related pubchem assays: 1829 (Project Summary), 1814 (Primary HTS)]; assay type: functional
[27] = Luminescence Cell-Based Dose Response to Identify Activators of Luciferase Translation or Activity in H4-C Neuroglioblastoma Cells. [Related pubchem assays: 1829 (Project Summary), 1814 (Primary HTS)]; assay type: functional
[28] = Luminescence Cell-Based Dose Confirmation to Identify Activators of 5'UTR Stem-Loop Driven Alpha-Synuclein mRNA Translation in H4 Neuroglioblastoma Cells. [Related pubchem assays: 1829 (Project Summary), 1814 (Primary HTS)]; assay type: functional
[29] = biological target: T5, Microphthalmia-associated transcription factor (Homo sapiens, UniProt O75030); test: reducers of TRPM1 reporter luminescence, concentration series – cell-based, SK-MEL-5, cherry-picked, set 3, MITF inhibitor project, dose response (AID 493073); assay type: functional;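 further: SK-MEL-5 melanoma cells with luciferase driven by the MITF target TRPM1 promoter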
T5 sequence (O75030 whole entry): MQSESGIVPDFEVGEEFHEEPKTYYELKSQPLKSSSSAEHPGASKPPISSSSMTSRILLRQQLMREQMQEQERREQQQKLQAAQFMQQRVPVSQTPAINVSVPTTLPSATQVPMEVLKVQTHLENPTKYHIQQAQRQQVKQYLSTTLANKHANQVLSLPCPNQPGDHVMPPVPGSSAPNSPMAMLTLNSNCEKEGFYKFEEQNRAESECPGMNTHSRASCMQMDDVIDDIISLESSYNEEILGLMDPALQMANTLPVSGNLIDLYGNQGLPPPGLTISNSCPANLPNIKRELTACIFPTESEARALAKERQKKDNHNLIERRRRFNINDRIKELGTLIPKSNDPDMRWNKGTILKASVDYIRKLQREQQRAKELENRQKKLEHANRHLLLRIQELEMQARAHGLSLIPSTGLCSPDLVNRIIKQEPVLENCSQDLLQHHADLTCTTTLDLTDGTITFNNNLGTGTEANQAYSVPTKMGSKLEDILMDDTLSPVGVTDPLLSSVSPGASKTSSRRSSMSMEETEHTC

[30] = Luminescence Cell-Based Dose Response HTS to Identify Activators of Luciferase Translation or Activity in H4 […] Cells. [Related pubchem assays: 1829 (Project Summary), 1814 (Primary HTS)]; assay type: functional
[31] = test system: H4; test: Luminescence Cell-Based Dose Response HTS to Identify Activators of 5'UTR Stem-Loop Driven Prion Protein mRNA Translation in H4 Neuroglioblastoma Cells. [Related pubchem assays: 1829 (Project Summary), 1814 (Primary HTS)]; assay type: functional; conditions: Homo sapiens

Mitogen-activated protein kinase 10, sequence (P53779 whole entry): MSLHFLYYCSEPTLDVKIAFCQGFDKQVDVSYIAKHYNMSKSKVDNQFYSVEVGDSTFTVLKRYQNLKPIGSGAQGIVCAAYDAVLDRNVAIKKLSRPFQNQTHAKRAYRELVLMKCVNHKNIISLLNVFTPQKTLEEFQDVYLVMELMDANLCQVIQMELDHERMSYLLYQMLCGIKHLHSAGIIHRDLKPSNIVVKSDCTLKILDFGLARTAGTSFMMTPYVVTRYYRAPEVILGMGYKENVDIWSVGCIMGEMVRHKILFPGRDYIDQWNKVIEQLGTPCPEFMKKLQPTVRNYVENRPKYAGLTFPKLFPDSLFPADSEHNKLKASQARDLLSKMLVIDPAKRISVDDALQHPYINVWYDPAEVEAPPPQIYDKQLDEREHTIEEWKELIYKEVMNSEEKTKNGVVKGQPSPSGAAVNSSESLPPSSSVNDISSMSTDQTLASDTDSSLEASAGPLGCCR
Large T antigen, sequence (P03070 whole entry): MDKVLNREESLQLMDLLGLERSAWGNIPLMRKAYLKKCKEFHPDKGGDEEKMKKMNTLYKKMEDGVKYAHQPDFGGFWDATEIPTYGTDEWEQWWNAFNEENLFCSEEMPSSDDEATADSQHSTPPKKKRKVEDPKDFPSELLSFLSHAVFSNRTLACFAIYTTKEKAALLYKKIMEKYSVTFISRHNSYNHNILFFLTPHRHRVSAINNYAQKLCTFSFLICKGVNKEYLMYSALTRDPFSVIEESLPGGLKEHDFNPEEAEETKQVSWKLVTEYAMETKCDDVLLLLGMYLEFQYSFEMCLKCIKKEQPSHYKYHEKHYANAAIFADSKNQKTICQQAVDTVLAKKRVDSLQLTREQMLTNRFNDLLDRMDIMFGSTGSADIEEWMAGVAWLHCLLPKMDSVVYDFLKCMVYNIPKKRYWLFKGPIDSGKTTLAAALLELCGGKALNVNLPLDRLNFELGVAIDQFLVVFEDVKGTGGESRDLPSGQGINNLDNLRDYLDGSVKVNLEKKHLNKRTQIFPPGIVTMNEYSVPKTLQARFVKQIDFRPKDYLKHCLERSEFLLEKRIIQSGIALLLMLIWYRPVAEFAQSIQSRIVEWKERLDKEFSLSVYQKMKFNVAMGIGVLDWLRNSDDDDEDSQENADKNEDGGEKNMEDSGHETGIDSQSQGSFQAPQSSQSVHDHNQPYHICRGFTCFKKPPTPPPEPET
Kallikrein-7, sequence (P49862 whole entry): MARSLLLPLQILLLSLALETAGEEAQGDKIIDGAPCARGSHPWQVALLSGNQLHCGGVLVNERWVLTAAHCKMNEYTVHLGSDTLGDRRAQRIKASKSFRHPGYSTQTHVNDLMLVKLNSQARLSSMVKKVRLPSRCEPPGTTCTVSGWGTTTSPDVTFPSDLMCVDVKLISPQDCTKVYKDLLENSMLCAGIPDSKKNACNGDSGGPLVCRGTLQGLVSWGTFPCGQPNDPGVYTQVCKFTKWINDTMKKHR
G-protein coupled receptor 183, sequence (P32249 whole entry): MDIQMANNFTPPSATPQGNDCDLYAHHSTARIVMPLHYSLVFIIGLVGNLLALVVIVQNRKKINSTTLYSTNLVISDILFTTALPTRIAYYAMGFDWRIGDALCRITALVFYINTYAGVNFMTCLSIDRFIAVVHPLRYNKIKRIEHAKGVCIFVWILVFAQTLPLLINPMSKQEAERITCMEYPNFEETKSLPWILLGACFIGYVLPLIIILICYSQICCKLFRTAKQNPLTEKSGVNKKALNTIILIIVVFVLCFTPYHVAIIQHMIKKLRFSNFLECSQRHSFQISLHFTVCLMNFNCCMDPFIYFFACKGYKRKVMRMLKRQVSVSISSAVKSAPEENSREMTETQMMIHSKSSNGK
Ephrin type-A receptor 4, sequence (Q03137 whole entry): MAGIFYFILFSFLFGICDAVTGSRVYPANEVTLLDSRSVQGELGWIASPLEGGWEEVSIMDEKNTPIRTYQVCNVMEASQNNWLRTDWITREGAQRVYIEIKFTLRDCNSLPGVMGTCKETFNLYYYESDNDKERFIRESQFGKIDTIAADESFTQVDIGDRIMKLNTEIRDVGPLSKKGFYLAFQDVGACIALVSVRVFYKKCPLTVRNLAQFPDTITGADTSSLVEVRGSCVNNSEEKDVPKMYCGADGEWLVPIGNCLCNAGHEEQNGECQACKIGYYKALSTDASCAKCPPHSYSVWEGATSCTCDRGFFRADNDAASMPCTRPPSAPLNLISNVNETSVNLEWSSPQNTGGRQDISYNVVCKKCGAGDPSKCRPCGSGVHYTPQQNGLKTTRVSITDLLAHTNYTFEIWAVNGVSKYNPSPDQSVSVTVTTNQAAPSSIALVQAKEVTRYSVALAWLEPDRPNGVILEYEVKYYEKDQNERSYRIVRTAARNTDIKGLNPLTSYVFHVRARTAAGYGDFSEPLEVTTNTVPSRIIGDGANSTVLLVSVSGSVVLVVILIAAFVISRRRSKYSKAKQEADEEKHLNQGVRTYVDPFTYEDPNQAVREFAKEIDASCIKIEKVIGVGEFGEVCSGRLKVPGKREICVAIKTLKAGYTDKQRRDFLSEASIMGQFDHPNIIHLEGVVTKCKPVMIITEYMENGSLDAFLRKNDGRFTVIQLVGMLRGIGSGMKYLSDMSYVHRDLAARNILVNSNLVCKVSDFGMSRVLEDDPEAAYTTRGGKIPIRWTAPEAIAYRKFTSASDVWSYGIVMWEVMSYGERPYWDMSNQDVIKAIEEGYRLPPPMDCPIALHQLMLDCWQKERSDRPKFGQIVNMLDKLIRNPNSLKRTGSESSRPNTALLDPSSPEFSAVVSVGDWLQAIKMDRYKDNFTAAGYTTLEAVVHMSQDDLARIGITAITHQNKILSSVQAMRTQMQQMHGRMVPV
RNA-editing ligase 1, mitochondrial, sequence (P86926 whole entry): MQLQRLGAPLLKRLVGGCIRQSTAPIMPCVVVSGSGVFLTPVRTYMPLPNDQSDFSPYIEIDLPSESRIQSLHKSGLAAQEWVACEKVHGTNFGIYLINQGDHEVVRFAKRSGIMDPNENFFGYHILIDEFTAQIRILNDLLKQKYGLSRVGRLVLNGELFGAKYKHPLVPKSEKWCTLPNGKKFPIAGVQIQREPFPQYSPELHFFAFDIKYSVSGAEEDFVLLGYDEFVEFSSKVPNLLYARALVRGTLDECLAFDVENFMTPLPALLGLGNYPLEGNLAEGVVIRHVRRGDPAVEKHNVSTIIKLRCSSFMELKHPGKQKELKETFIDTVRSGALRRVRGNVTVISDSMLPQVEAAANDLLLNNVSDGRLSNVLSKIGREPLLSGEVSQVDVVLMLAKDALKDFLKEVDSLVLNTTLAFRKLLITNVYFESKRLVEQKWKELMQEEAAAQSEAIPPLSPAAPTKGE
Caspase-6, sequence (P55212 24-179 limits assumed): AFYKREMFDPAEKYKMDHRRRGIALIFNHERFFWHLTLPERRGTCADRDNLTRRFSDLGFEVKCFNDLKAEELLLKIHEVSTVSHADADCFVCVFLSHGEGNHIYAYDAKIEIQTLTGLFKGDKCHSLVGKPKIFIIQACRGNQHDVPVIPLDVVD
Caspase-6, sequence (P55212 194-293 limits assumed): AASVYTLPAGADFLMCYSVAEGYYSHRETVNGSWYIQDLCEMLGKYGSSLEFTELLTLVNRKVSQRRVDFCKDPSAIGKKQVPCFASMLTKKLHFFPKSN
Induced myeloid leukemia cell differentiation protein Mcl-1, sequence (Q07820 whole entry): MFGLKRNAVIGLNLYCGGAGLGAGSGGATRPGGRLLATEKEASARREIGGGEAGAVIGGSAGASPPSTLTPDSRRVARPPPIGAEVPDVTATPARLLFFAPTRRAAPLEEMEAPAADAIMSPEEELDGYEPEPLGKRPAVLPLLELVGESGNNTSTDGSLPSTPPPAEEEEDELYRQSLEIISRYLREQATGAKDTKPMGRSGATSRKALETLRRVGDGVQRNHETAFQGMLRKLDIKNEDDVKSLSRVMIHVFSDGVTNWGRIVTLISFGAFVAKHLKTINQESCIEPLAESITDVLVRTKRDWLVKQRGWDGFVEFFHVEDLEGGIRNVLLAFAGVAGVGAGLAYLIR
Cytochrome P450 2C9, sequence (P11712 whole entry): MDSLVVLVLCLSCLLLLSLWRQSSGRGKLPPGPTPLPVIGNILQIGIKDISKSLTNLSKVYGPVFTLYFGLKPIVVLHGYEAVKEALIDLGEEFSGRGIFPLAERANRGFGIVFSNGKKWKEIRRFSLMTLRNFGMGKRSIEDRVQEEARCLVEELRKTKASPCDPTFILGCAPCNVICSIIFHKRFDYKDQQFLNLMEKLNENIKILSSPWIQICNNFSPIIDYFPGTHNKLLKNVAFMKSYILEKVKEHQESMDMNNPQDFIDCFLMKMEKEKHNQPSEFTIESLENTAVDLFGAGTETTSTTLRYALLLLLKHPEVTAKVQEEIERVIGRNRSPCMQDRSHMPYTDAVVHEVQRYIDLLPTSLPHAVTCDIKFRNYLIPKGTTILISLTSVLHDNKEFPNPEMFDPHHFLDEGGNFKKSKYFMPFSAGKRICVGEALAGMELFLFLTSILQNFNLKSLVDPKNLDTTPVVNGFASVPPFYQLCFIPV
Eukaryotic translation initiation factor 4E, sequence (P63073 whole entry): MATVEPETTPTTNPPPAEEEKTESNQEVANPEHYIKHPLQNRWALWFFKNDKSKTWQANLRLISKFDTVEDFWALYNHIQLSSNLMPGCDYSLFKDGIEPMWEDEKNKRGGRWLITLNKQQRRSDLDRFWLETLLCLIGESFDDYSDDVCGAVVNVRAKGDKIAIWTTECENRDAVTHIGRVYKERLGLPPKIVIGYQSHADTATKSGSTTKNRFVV

## Oc1ccc(/C=N/N2CCCCC2)c(O)c1O
[1]
  EC50: 20.3 µM (active)
[2]
  EC50: > 300 µM (inconclusive)
[3]
  IC50: > 100 µM (active)
[4]
  IC50: > 73.5 µM (inactive)
[5]
  AC50: 24.2 µM (active)

## N#Cc1c(N)nc(SCc2ccncc2)c(C#N)c1-c1cccs1
[1]
  EC50: > 300 µM (not active)
[2]
  EC50: > 300 µM (not active)
[6]
  EC50: > 195 µM (not active)
[7]
  EC50: 0.145 µM (active)
[8]
  EC50: 17.1 µM (active)
[9]
  IC50: 54.8 µM (not active)

## COc1cc(/C=C2\SC(=S)N(Nc3ccccc3)C2=O)cc(OC)c1OC
[10]
  IC50: 2.64 µM (active)
[11]
  AC50: 7.08 µM (inconclusive)
[12]
  AC50: 15.8 µM (inconclusive)

## O=C(O)CCC(=O)NN1C(=O)c2ccccc2NC1c1ccco1 (configuration not stated)
[13]
  EC50: > 69.5 µM (inactive)

## Nc1ccc2c(c1)Cc1ccccc1-2
[14]
  IC50: 3.52 µM (active)
[15]
  IC50: > 100 µM (active)

## COC(=O)C1=C(C)N(Cc2ccccc2C(F)(F)F)C(NCc2ccc3c(c2)OCO3)=NC1c1ccccc1 (configuration not stated)
[16]
  IC50: > 96.6 µM (inactive)

## N#Cc1ccc(C(=O)N2CCN(C(=O)/C=C/c3ccc(Br)cc3)CC2)cc1
[17]
  IC50: 0.00174 µM (active)

## CCCCCCSc1nsc(NC(=O)CC(C)C)n1
[15]
  IC50: > 100 µM (active)
[18]
  AC50: 2.02 µM (active)

## Nc1nc(-c2ccccc2)cc(-c2ccccc2O)n1
[9]
  IC50: 40.6 µM (not active)
[19]
  AC50: 3.55 µM (inconclusive)

## Cc1ccccc1NC(=O)COC(=O)COc1ccc2ccc(=O)oc2c1
[13]
  EC50: 31.9 µM (inactive)

## CC(=O)Nc1ccc(NC2=Nc3ccccc3N3C2=Nc2c(c(C)nn2-c2ccccc2)C3c2ccccc2)cc1 (configuration not stated)
[10]
  IC50: 16.6 µM (active)

## O=C1C(=Cc2ccc(Br)o2)C(=O)c2ccccc21
[14]
  IC50: 93.7 µM (active)
[20]
  IC50: 18.5 µM (active)
[21]
  IC50: 1.92 µM (active)
[22]
  IC50: 20.1 µM (active)

## COc1cccc(C#Cc2ccc([C@@H]3[C@@H](CO)N(C(=O)C4CCC4)[C@H]3C#N)cc2)c1
[23]
  AC50: 30.9 µM (active)
[24]
  AC50: 26.8 µM (active)
[25]
  AC50: 46.8 µM (active)

## O=C(Nc1ccc(Cl)cc1)c1ccc(OCC2CCCO2)cc1 (configuration not stated)
[26]
  EC50: 0.924 µM (active)
[27]
  EC50: 0.301 µM (active)
[28]
  EC50: > 12 µM (not active)

## O=C(/C=C/c1ccc(F)cc1)N1CCN(S(=O)(=O)c2cccc(Br)c2)CC1
[17]
  IC50: 0.0175 µM (active)

## O=C(Cn1ncc(Cl)c(Cl)c1=O)N1CCOCC1
[29]
  AC50: 9.82 µM (active)
[23]
  AC50: 38 µM (active)
[24]
  AC50: 34.4 µM (active)
[25]
  AC50: 13.7 µM (active)

## Cc1nnc(N/N=C/c2cccc(C(F)(F)F)c2)n1N
[5]
  AC50: 34.8 µM (active)

## CC(C)C[C@H](NC1(C(=O)NC2CCCCC2)CCN(C)CC1)C(=O)NCC(c1ccccc1)c1ccccc1
[16]
  IC50: > 96.6 µM (inactive)

## O=c1cccccc1NN=C1CCCCCC1
[26]
  EC50: 0.608 µM (active)
[30]
  EC50: < 0.1 µM (active)
[31]
  EC50: > 120 µM (not active)
[27]
  EC50: 0.385 µM (active)
[28]
  EC50: 0.446 µM (active)
